The source of these data is article PMC9851200, “Multiparameter phenotypic screening for endogenous TFEB and TFE3 translocation identifies novel chemical series modulating lysosome function” (Autophagy, 2022).

Common to all, as to settings: PKIS2 primary screening
For one data set, the system named is endogenous TFE3. Description: TFE3 nuclear translocation, immunocytochemistry high-content imaging. It is filed as cell-based.
The subject of data set [1] is SH-SY5Y cells. In words: Nuclear count from microscopy images (cellular growth and toxicity). Note: reference of the scale not given here.
Data set [2] relates to SH-SY5Y cells.
Description: The PKIS2 Library was supplied by The Structural Genomics Consortium at the University of North Carolina at Chapel Hill.
Another data set deals with endogenous TFEB. In words: TFEB nuclear translocation, immunocytochemistry high-content imaging. The class given is cell-based.
Data set [3] concerns SH-SY5Y cells. Description: AK (adenylate kinase) release ToxiLight cytotoxicity assay. Note: reference of the scale not given here.

Read-outs that look alike come from different tables or passages of the source.
Throughout, for DQ Intensity: reference of the scale not given here.
Throughout, for DQ Spot: reference of the scale not given here.

The molecule `CS(=O)(=O)CCNCc1nc(-c2ccc3ncnc(Nc4ccc(OCc5ccccc5)c(Cl)c4)c3c2)cs1.Cl` [UNC10225279B] displayed a TFE3 % with endogenous TFE3 of 17.30%. For the same molecule, the “Nuclear Count” value in the data set on SH-SY5Y cells [1] is 87.19. In the data set with SH-SY5Y cells [2] (DQ Red BSA intensity), the “DQ Intensity” value is given as 82.64. In addition, in the data set with SH-SY5Y cells [2] (DQ Red BSA spot count), the “DQ Spot” value stood at 92.63. For the same molecule, in the data set on endogenous TFEB, the TFEB % is recorded as 5.66%. Moreover, in the data set on SH-SY5Y cells [3], the AK is listed as 96.76.
For `Cn1cncc1-c1cc2c(Nc3ccc(OCc4ccccc4)cc3)ncnc2cn1` [UNC10225035A], the TFE3 % with endogenous TFE3 is given as 18.86%. Further, the “Nuclear Count” value in the data set on SH-SY5Y cells [1] stood at 109.40. Also, the “DQ Intensity” value in the data set with SH-SY5Y cells [2] (DQ Red BSA intensity) stood at 110.55. Moreover, in the data set with SH-SY5Y cells [2] (DQ Red BSA spot count), the “DQ Spot” value is recorded as 106.44. Moreover, in the data set with endogenous TFEB, the TFEB % came out at 6.44%. This molecule returned an AK with SH-SY5Y cells [3] of 76.24.
In turn, `COc1ccc(NC(=O)c2ccoc2)cc1-c1ccc(C(=O)NCC2CC2)cc1` [UNC10225046A] yielded a TFE3 % in the data set on endogenous TFE3 of 9.04%. Also, the “Nuclear Count” value in the data set on SH-SY5Y cells [1] is reported as 104.87. Moreover, in the data set with SH-SY5Y cells [2], the “DQ Intensity” value was found to be 103.40 and the “DQ Spot” value is on record as 103.73. In addition, the TFEB % with endogenous TFEB was found to be 6.55%. The molecule further showed an AK in the data set with SH-SY5Y cells [3] of 86.14.
Regarding `O=C(Nc1ccccc1F)NC1CCN(c2ccnc(Nc3ccc(F)cc3)n2)C1` (stereo not drawn) [GSK1379722], the TFE3 % in the data set on endogenous TFE3 was 10.71%. The “Nuclear Count” value in the data set with SH-SY5Y cells [1] turned out to be 114.62. Moreover, the “DQ Intensity” value with SH-SY5Y cells [2] (DQ Red BSA intensity) worked out at 129.34. Also, the “DQ Spot” value in the data set with SH-SY5Y cells [2] (DQ Red BSA spot count) is 121.71. In addition, the TFEB % in the data set with endogenous TFEB turned out to be 14.40%. In the data set on SH-SY5Y cells [3], this molecule came in with an AK of 94.79.
In the data set with endogenous TFE3, `O=C(NCCNc1ccnc(NCc2ccc(F)cc2)n1)c1cc2ccccc2s1` [GSK1379944] yielded a TFE3 % of 12.27%. The “Nuclear Count” value in the data set with SH-SY5Y cells [1] came out at 79.28. For the same molecule, in the data set with SH-SY5Y cells [2] (DQ Red BSA intensity), the “DQ Intensity” value is 122.34. For the same molecule, the “DQ Spot” value in the data set on SH-SY5Y cells [2] (DQ Red BSA spot count) is listed as 117.48. Further, the TFEB % in the data set on endogenous TFEB amounted to 8.85%. Also, the AK in the data set on SH-SY5Y cells [3] was determined as 378.86.
With `COC(=O)Nc1nc2ccc(Oc3ccc(CC(=O)Nc4cc(C(F)(F)F)ccc4F)cc3)cc2[nH]1` [GW680903], in the data set with endogenous TFE3, the TFE3 % was 12.77%. Besides, the “Nuclear Count” value with SH-SY5Y cells [1] is on record as 109.57. For the same molecule, the “DQ Intensity” value with SH-SY5Y cells [2] (DQ Red BSA intensity) is recorded as 59.92. Besides, the “DQ Spot” value in the data set on SH-SY5Y cells [2] (DQ Red BSA spot count) amounted to 85.78. Besides, the TFEB % with endogenous TFEB was 2.10%. The AK with SH-SY5Y cells [3] is listed as 72.57.
In the data set on endogenous TFE3, `Cn1cncc1C(=O)NC1CCN(c2ccnc(Nc3ccc(F)cc3)n2)C1` (stereo not drawn) [GSK1379717] displayed a TFE3 % of 10.47%. Moreover, in the data set on SH-SY5Y cells [1], the “Nuclear Count” value came out at 85.90. In addition, the “DQ Intensity” value with SH-SY5Y cells [2] (DQ Red BSA intensity) turned out to be 84.19. For the same molecule, the “DQ Spot” value with SH-SY5Y cells [2] (DQ Red BSA spot count) is 97.80. This molecule displayed a TFEB % in the data set on endogenous TFEB of 3.86%. Moreover, the AK in the data set with SH-SY5Y cells [3] was found to be 113.98.
The molecule `CCn1c(-c2c(N)noc2C)nc2cnccc21` [UNC10225095A] had a TFE3 % in the data set with endogenous TFE3 of 10.37%. Besides, the “Nuclear Count” value in the data set on SH-SY5Y cells [1] came out at 110.85. Besides, in the data set on SH-SY5Y cells [2], the “DQ Intensity” value is listed as 103.20 and the “DQ Spot” value came out at 105.92. The molecule also came in with a TFEB % with endogenous TFEB of 3.05%. The AK in the data set with SH-SY5Y cells [3] is on record as 112.40.
`OCCCNc1nccc(-c2c(-c3cccc(C(F)(F)F)c3)nn3cc(C(F)(F)F)ccc23)n1` [UNC10225352A]: the TFE3 % with endogenous TFE3 is on record as 11.93%. Besides, the “Nuclear Count” value in the data set with SH-SY5Y cells [1] is 112.73. In addition, in the data set on SH-SY5Y cells [2], the “DQ Intensity” value was 93.14 and the “DQ Spot” value was found to be 97.34. In the data set on endogenous TFEB, the TFEB % is 4.95%. The AK with SH-SY5Y cells [3] is 111.75.
`Nc1nccc(-c2ccc3c(N)n[nH]c3c2)n1` [GSK1034945] yielded a TFE3 % with endogenous TFE3 of 14.89%. The “Nuclear Count” value in the data set on SH-SY5Y cells [1] came out at 141.53. In addition, the “DQ Intensity” value with SH-SY5Y cells [2] (DQ Red BSA intensity) is listed as 84.11. Also, the “DQ Spot” value in the data set with SH-SY5Y cells [2] (DQ Red BSA spot count) stood at 101.09. In the data set with endogenous TFEB, this molecule returned a TFEB % of 3.25%. For the same molecule, the AK with SH-SY5Y cells [3] is 117.83.
In the case of `COC(=O)C(Cc1ccccc1)NC(=O)NC1CCN(c2ccnc(Nc3ccc(F)cc3)n2)C1` (stereo not drawn) [GSK1379714], the TFE3 % with endogenous TFE3 stood at 7.75%. Further, the “Nuclear Count” value in the data set with SH-SY5Y cells [1] was determined as 110.40. Besides, the “DQ Intensity” value in the data set with SH-SY5Y cells [2] (DQ Red BSA intensity) came to 97.62. Further, the “DQ Spot” value with SH-SY5Y cells [2] (DQ Red BSA spot count) is 115.84. Also, the TFEB % with endogenous TFEB turned out to be 4.19%. Also, the AK with SH-SY5Y cells [3] is listed as 95.90.
Turning to `O=C(Nc1cccc(-c2nn3ccccc3c2-c2ccnc(Nc3cccc(F)c3)n2)c1)c1c(F)ccc(F)c1Cl` [UNC10225081A], the TFE3 % with endogenous TFE3 worked out at 13.17%. Also, the “Nuclear Count” value with SH-SY5Y cells [1] was found to be 54.18. In the data set with SH-SY5Y cells [2], the “DQ Intensity” value was determined as 135.52 and the “DQ Spot” value is 127.57. The TFEB % in the data set with endogenous TFEB stood at 11.80%. In addition, in the data set with SH-SY5Y cells [3], the AK came out at 69.78.
Molecule `COc1cc2ncn(-c3cc(OCC4CCCCC4)c(C(N)=O)s3)c2cc1OC` [UNC10225496A] had a TFE3 % with endogenous TFE3 of 7.72%. Besides, in the data set on SH-SY5Y cells [1], the “Nuclear Count” value came to 113.87. In the data set with SH-SY5Y cells [2], the “DQ Intensity” value was 104.41 and the “DQ Spot” value was found to be 104.84. This molecule registered a TFEB % in the data set with endogenous TFEB of 3.76%. The molecule further came in with an AK in the data set with SH-SY5Y cells [3] of 73.76.
